Measured values: ChEMBL document CHEMBL3813616, “Discovery of novel 7-azaindoles as PDK1 inhibitors” (Bioorg Med Chem Lett, 2016)

Columns and labels:
[1] = molecular target: Tyrosine-protein kinase CSK (Homo sapiens) (UniProt P41240); assay: Inhibition of human CSK (1 to 450 residues) assessed as enzyme activity at 1 uM using 33P ATP by radioactive filter binding assay; parameters: scale not given: the % may be the effect or the level left
[2] = molecular target: Tyrosine-protein kinase Lck (Homo sapiens) (UniProt P06239); assay: Inhibition of human LCK (2 to 509 residues) assessed as enzyme activity at 1 uM using 33P ATP by radioactive filter binding assay; parameters: scale not given: the % may be the effect or the level left
[3] = molecular target: Serine/threonine-protein kinase 26 (Homo sapiens) (UniProt Q9P289); assay: Inhibition of human MST4 (1 to 416 residues) assessed as enzyme activity at 1 uM using 33P ATP by radioactive filter binding assay; parameters: scale not given: the % may be the effect or the level left
[4] = molecular target: Casein kinase II (Homo sapiens) (UniProt P67870+P68400+P19784); assay: Inhibition of human CK2 assessed as enzyme activity at 1 uM using 33P ATP by radioactive filter binding assay; type: protein-complex assay; parameters: scale not given: the % may be the effect or the level left
[5] = molecular target: MAP kinase-interacting serine/threonine-protein kinase 2 (Homo sapiens) (UniProt Q9HBH9); assay: Inhibition of human MNK2alpha (2 to 465 residues) assessed as enzyme activity at 1 uM using 33P ATP by radioactive filter binding assay; parameters: scale not given: the % may be the effect or the level left
[6] = molecular target: Serine/threonine-protein kinase N2 (Homo sapiens) (UniProt Q16513); assay: Inhibition of human PRK2 (501 to 984 residues) assessed as enzyme activity at 1 uM using 33P ATP by radioactive filter binding assay; parameters: scale not given: the % may be the effect or the level left
[7] = molecular target: Ribosomal protein S6 kinase beta-1 (Homo sapiens) (UniProt P23443); assay: Inhibition of human S6K1 (1 to 421 residues) assessed as enzyme activity at 1 uM using 33P ATP by radioactive filter binding assay; parameters: scale not given: the % may be the effect or the level left
[8] = molecular target: Homeodomain-interacting protein kinase 2 (Homo sapiens) (UniProt Q9H2X6); assay: Inhibition of human HIPK2 (165 to 564 residues) assessed as enzyme activity at 1 uM using 33P ATP by radioactive filter binding assay; parameters: scale not given: the % may be the effect or the level left
[9] = molecular target: Serine/threonine-protein kinase PLK1 (Homo sapiens) (UniProt P53350); assay: Inhibition of human PLK1 (1 to 603 residues) assessed as enzyme activity at 1 uM using 33P ATP by radioactive filter binding assay; parameters: scale not given: the % may be the effect or the level left
[10] = molecular target: Mitogen-activated protein kinase 8 (Homo sapiens) (UniProt P45983); assay: Inhibition of human JNK1alpha1 assessed as enzyme activity at 1 uM using 33P ATP by radioactive filter binding assay; parameters: scale not given: the % may be the effect or the level left
[11] = molecular target: Dual specificity tyrosine-phosphorylation-regulated kinase 1A (Homo sapiens) (UniProt Q13627); assay: Inhibition of human DYRK1A (1 to 502 residues) assessed as enzyme activity at 1 uM using 33P ATP by radioactive filter binding assay; parameters: scale not given: the % may be the effect or the level left
[12] = molecular target: T1, MAP kinase-activated protein kinase 5 (Homo sapiens) (UniProt Q8IW41); assay: Inhibition of human PRAK (1 to 471 residues) assessed as enzyme activity at 1 uM using 33P ATP by radioactive filter binding assay; parameters: scale not given: the % may be the effect or the level left
T1 sequence (whole entry): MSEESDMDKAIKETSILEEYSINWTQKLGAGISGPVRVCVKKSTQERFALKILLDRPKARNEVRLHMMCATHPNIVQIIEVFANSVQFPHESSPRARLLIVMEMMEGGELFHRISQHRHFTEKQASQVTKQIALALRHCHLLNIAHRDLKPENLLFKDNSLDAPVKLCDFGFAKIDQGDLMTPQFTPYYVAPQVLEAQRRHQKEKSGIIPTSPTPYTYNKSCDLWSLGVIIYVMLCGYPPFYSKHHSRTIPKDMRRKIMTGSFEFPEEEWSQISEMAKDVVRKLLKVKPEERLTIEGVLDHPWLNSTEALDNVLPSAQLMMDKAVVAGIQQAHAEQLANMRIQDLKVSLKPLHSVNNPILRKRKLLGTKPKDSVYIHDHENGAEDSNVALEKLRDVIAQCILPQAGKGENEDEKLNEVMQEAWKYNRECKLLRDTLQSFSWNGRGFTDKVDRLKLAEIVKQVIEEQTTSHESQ

[13] = molecular target: Protein kinase C alpha type (Homo sapiens) (UniProt P17252); assay: Inhibition of human PKCalpha (1 to 672 residues) assessed as enzyme activity at 1 uM using 33P ATP by radioactive filter binding assay; parameters: scale not given: the % may be the effect or the level left
[14] = molecular target: MAP kinase-interacting serine/threonine-protein kinase 1 (Homo sapiens) (UniProt Q9BUB5); assay: Inhibition of human MNK1 (2 to 424 residues) assessed as enzyme activity at 1 uM using 33P ATP by radioactive filter binding assay; parameters: scale not given: the % may be the effect or the level left
[15] = molecular target: Aurora kinase B (Homo sapiens) (UniProt Q96GD4); assay: Inhibition of human Aurora B (1 to 344 residues) assessed as enzyme activity at 1 uM using 33P ATP by radioactive filter binding assay; parameters: scale not given: the % may be the effect or the level left
[16] = molecular target: T2, 3-phosphoinositide-dependent protein kinase 1 (Homo sapiens, UniProt O15530); assay: Inhibition of PDK1 in human PC3 cells assessed as reduction in AKT Thr308 phosphorylation after 45 mins; type: cell-based, PC-3
T2 sequence (O15530 whole entry): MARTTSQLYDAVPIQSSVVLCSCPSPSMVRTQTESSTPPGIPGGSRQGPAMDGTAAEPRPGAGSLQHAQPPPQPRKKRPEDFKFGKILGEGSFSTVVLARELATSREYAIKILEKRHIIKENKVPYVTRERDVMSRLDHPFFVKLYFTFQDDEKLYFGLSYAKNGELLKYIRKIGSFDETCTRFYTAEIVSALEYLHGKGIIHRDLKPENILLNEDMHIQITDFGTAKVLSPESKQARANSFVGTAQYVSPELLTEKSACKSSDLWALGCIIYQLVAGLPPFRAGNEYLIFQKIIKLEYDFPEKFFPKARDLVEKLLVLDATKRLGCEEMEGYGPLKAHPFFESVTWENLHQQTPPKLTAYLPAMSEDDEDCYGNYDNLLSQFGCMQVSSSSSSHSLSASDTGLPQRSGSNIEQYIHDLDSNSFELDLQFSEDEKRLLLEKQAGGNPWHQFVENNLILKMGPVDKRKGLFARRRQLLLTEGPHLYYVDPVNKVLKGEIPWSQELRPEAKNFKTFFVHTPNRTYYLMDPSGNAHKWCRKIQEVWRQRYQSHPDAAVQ

[17] = molecular target: Vascular endothelial growth factor receptor (Homo sapiens) (UniProt P17948+P35916+P35968); assay: Inhibition of human VEGFR assessed as enzyme activity at 1 uM using 33P ATP by radioactive filter binding assay; type: protein assay; parameters: scale not given: the % may be the effect or the level left
[18] = molecular target: Insulin receptor (Homo sapiens) (UniProt P06213); assay: Inhibition of human IR (1001 to 1382 residues) assessed as enzyme activity at 1 uM using 33P ATP by radioactive filter binding assay; parameters: scale not given: the % may be the effect or the level left

Sequence of Vascular endothelial growth factor receptor (Homo sapiens) (P17948 whole entry, looked up, the tested form may be a part): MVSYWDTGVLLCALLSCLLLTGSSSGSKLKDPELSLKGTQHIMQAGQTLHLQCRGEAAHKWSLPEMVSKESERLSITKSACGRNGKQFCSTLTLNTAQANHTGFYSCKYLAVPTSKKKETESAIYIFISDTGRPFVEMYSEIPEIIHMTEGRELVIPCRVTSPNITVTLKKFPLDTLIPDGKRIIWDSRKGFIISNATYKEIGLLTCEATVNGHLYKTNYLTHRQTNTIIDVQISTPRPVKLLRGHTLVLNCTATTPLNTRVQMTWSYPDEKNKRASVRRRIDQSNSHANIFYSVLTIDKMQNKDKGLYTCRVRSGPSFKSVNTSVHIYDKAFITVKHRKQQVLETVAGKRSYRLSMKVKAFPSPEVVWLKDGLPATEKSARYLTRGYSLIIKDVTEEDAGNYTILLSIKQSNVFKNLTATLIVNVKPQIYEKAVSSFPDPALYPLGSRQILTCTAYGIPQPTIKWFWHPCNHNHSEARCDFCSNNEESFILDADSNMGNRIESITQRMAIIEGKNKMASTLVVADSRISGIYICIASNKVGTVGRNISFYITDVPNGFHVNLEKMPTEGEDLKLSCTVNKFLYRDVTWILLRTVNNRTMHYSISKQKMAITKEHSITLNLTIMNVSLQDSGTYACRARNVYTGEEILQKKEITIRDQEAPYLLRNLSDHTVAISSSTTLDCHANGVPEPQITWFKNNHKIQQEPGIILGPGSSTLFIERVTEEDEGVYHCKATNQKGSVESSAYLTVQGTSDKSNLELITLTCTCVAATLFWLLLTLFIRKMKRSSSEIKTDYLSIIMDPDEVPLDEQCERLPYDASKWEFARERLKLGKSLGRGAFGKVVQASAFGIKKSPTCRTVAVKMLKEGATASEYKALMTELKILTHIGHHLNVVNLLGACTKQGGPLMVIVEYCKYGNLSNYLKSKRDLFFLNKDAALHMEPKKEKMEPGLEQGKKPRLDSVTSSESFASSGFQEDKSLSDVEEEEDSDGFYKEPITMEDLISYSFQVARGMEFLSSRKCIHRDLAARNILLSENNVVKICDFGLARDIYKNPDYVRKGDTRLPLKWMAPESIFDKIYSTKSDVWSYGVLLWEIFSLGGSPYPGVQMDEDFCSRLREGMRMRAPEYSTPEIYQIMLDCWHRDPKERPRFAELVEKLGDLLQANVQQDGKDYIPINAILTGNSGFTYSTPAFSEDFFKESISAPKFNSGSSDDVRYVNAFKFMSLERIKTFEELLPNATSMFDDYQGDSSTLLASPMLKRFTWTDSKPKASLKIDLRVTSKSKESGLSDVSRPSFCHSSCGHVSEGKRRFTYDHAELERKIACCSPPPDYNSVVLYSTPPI
Sequence of Vascular endothelial growth factor receptor (Homo sapiens) (P35916 whole entry, looked up, the tested form may be a part): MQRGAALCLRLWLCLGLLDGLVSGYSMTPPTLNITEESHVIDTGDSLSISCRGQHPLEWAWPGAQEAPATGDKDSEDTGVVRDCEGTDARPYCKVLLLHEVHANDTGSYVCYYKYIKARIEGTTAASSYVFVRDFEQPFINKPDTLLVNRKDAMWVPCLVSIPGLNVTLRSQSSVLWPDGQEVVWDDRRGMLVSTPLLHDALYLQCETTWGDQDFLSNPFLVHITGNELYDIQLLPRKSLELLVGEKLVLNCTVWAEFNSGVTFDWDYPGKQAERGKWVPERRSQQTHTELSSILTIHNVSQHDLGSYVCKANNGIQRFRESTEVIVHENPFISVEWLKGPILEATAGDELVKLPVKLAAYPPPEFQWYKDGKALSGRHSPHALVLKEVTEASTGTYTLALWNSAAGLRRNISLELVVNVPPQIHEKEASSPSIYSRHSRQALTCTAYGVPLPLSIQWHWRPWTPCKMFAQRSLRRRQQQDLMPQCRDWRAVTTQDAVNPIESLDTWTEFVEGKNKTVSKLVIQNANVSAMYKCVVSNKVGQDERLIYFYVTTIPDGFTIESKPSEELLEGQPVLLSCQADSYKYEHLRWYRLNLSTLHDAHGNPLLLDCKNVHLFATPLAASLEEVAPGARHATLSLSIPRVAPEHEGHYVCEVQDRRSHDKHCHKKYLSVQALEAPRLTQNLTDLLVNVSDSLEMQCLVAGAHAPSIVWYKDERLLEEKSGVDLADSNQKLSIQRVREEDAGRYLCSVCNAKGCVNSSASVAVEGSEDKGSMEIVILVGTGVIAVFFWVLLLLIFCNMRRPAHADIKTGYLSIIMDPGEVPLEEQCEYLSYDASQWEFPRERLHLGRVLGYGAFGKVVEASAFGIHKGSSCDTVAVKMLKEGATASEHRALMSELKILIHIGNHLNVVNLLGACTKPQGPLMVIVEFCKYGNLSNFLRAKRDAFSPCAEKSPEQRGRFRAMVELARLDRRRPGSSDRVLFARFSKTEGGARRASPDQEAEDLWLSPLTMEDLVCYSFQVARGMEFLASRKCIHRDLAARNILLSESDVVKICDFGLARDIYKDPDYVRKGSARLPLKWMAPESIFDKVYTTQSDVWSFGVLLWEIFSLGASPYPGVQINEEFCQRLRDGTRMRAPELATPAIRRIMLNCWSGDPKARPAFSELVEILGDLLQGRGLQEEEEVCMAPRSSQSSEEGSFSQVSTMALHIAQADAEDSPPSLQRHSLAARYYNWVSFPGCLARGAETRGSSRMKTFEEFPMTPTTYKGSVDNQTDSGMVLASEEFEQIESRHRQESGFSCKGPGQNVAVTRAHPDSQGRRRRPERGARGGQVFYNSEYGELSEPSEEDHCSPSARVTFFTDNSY
Sequence of Vascular endothelial growth factor receptor (Homo sapiens) (P35968 whole entry, looked up, the tested form may be a part): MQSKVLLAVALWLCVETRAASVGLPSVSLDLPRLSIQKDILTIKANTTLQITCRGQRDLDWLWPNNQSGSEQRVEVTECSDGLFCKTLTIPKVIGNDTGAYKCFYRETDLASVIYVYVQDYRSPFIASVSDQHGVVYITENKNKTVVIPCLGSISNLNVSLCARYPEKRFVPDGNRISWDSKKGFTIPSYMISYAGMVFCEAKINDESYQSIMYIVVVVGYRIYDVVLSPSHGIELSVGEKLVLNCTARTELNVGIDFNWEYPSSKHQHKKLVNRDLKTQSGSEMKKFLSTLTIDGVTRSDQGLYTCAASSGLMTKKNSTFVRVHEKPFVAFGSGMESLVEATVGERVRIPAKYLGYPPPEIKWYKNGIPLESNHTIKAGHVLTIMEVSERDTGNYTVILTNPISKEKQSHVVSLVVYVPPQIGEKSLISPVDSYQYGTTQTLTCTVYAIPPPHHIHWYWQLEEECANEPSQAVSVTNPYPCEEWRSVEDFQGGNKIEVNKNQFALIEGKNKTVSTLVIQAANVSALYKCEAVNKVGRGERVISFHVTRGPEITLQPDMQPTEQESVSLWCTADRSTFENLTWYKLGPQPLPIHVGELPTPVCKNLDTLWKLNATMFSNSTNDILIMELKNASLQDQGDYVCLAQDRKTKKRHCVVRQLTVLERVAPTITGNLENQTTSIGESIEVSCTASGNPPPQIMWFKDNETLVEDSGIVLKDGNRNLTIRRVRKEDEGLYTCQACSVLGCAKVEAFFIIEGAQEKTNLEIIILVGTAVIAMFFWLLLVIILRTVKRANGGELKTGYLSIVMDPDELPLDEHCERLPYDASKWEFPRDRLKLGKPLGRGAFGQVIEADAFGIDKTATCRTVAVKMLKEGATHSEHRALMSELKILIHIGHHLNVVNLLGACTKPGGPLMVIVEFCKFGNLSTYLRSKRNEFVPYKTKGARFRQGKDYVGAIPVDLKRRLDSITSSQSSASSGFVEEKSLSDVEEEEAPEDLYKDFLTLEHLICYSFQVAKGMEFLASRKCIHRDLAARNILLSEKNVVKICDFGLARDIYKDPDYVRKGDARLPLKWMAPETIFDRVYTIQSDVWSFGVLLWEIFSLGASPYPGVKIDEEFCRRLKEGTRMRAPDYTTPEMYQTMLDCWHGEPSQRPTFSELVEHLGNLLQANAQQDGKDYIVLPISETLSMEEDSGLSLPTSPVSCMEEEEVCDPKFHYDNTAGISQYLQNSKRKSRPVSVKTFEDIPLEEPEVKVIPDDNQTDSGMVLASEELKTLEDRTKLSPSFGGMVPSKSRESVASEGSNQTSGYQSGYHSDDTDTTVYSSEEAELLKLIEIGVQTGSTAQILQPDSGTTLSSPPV
Sequence of Mitogen-activated protein kinase 8 (Homo sapiens) (P45983 whole entry, the tested form may be a part): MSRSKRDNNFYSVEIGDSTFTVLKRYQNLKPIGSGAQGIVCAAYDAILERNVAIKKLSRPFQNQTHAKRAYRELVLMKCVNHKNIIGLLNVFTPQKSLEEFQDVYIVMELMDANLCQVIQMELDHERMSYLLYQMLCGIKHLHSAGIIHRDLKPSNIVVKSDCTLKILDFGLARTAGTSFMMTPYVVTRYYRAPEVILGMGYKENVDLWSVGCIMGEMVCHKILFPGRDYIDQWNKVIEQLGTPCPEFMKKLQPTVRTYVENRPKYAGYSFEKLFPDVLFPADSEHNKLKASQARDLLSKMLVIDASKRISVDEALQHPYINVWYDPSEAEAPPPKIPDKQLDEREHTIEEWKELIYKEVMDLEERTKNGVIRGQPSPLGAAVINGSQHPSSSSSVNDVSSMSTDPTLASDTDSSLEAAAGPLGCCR
Sequence of Tyrosine-protein kinase CSK (Homo sapiens) (P41240 2-450 limits assumed): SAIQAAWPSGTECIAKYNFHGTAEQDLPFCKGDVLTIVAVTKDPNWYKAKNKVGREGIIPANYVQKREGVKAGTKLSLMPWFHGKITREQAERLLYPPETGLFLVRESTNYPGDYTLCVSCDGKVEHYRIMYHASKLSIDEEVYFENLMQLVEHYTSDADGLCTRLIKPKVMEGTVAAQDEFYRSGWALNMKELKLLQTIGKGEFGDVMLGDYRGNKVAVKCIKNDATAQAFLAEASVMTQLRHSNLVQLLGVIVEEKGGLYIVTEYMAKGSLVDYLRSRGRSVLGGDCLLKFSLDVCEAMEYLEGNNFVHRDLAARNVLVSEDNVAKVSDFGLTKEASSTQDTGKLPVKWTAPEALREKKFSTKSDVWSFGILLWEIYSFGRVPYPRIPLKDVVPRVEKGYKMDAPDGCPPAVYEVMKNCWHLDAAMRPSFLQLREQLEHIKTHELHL

Row | Activity [1] [%] | Activity [2] [%] | Activity [3] [%] | Activity [4] [%] | Activity [5] [%] | Activity [6] [%] | Activity [7] [%] | Activity [8] [%] | Activity [9] [%] | Activity [10] [%] | Activity [11] [%] | Activity [12] [%] | Activity [13] [%] | Activity [14] [%] | Activity [15] [%] | IC50 [16] [µM] | Activity [17] [%] | Activity [18] [%] | SMILES
1 | -5 | -5 | -4 | 14 | -15 | -63 | -77 | -67 | -6 | -6 | -90 | 2 | -18 | -23 | -16 | > 10 |  |  | CCCCc1cc(-c2c[nH]c3ncccc23)nc(N)n1
2 | 0 | -9 | -9 | -22 | -35 | -73 | -71 | -79 | -26 | -5 | -95 | -17 | -28 | -15 | -31 | > 10 | -44 | -6 | Nc1nccc(-c2c[nH]c3ncccc23)n1 [MERIOLIN 1]
3 | -24 | -99 | -40 | 0 | -42 | -94 | -84 | -92 | -41 | -41 | -92 | -10 | -55 | -59 | -62 | 2.3 | -97 | -28 | CCCCc1cc(-c2c[nH]c3ncc(-c4cnn(C5CCNCC5)c4)cc23)nc(N)n1
4 | 6 | -95 | -49 | -10 | -49 | -86 | -66 | -99 | -41 | -31 | -94 | 4 | -73 | -46 |  | 13 | -97 | -8 | CCc1cc(-c2c[nH]c3ncc(-c4cnn(C5CCNCC5)c4)cc23)nc(N)n1
